Data from PubChem BioAssay AID1117276 (Broad Institute, 2014).
Results filed as inconclusive are left out. The source made the active and inactive calls. The rule behind the calls is not given here.

System: orthopoxvirus-infected cells, imaging factory/early/late reporters
Assay: orthopoxvirus gene expression and factory formation inhibitors, imaging, low MOI, factory DAPI readout, single point, dry powder (AID 1117276)
Conditions: at 10 µM; active compounds read high

For `C[C@@H](O)C#Cc1ccc2c(c1)O[C@@H](CN(C)Cc1ccc(-c3ccccc3)cc1)[C@@H](C)CN([C@@H](C)CO)S2(=O)=O`, the activity score, factory formation (DAPI) was 36 (inactive).
